As a reminder, the inhibition is the percentage by which the read-out fell short of the control.

Assay [1] has as its system S. aureus 272123. Put plainly: Real-time ethidium bromide accumulation assay (efflux pump inhibition). It is filed as cell-based, Staphylococcus aureus. On the set-up: key: RFI = (RFtreated − RFuntreated)/RFuntreated at minute 60. The following applies: compounds 50 µM, reserpine 25 µM, minute 60, EB 1 µg/mL. As for the experimental part: (§1) The relative fluorescence index (RFI) was calculated based on the means of relative fluorescence units, and theses RFIs are depicted in Table 4.
(§2) The compounds were evaluated for their ability to inhibit the efflux of EB, an efflux pump substrate, in Salmonella enterica serovar Typhimurium SE03 and S. aureus 272123 strains, through real-time fluorimetry, monitoring the intracellular accumulation of EB, an efflux pump substrate. This was determined by the automated method using a CLARIOstar Plus plate reader (BMG Labtech, Ortenberg, Germany). Reserpine and CCCP were applied at 25 µM as positive controls, and the solvent DMSO was applied at 1% v/v. The bacterial strains were incubated in an appropriate culture media (TSB–S. aureus 272123; LB-B–SE03) at 37 °C until they reached an optical density (OD) of 0.6 at 600 nm. The culture was centrifuged at 13,000× g for 3 min, and the pellet was washed and resuspended with phosphate buffered saline (PBS, pH 7.4). The suspension was centrifuged again in the same conditions and resuspended in PBS.
(§3) Then, 50 µL of this solution were transferred into a 96-well black microtiter plate (Greiner Bio-One Hungary Kft, Mosonmagyaróvár, Fertősor, Hungary), and 50 µL of bacterial suspension (OD600 = 0.6) were added to each well. The plates were placed into the CLARIOstar plate reader, and the fluorescence was monitored at excitation and emission wavelengths of 530 nm and 600 nm, respectively, every minute for one hour on a real-time basis. From the real-time data, the activity of the compounds, namely the relative fluorescence index (RFI) of the last time point (minute 60) of the EB accumulation assay, was calculated according to the following equation:(1) RFI=RFtreated−RFuntreated/RFuntreated where RFtreated is the relative fluorescence (RF) at the last time point of EB accumulation curve in the presence of the compound, and RFuntreated is the RF at the last time point of the EB accumulation curve of the untreated control, having only the solvent (DMSO) control. The accumulation curves were designed using Microsoft Excel®. The samples were tested in triplicate, and the RFI presented comes from the average of these three values. The accumulation graphs present the mean of the RF at the last time point. The standard deviation (SD) was calculated automatically and included in the RF graphs.

In assay [2] the test system is SE03. The assay is described as above. Conditions: compounds 50 µM (compound 12 at 17 µM), CCCP 25 µM, minute 60, EB 1 µg/mL. It is filed as cell-based, Salmonella enterica serovar Typhimurium SL1344. The method, then: as §1, §2, §3
Assay [3] deals with E. faecalis ATCC 29212. Put plainly: Antibacterial activity, broth microdilution MIC. It is filed as cell-based. Conditions: Enterococcus faecalis. The source says: (§4) The referred library of thioxanthones was initially tested for their antimicrobial activity against six bacterial strains: the Gram-negative Escherichia coli ATCC 25922, Pseudomonas aeruginosa ATCC 27853 and Salmonella enterica serovar Typhimurium SL1344 (SE03), with the acrA gene deleted, and the Gram-positive Staphylococcus aureus ATCC 29213, Enterococcus faecalis ATCC 29212 and the methicillin and ofloxacin-resistant clinical isolate S. aureus 272123. For the synergy assay, two clinically relevant isolates were used: the extended-spectrum β-lactamase (ESBL)-producing E. coli SA/2 [23] and the vancomycin-resistant E. faecalis (VRE) B3/101 [23]. The antibiotics used were cefotaxime (CTX) and vancomycin (VAN), respectively.
(§5) The minimum inhibitory concentration (MIC) for each compound was determined by broth microdilution method in a 96-well plate according to the Clinical and Laboratory Standard Institute (CLSI) guidelines. The medium used was MHB II. The concentrations tested ranged from 100 µM to 0.195 µM and were prepared from a stock solution of 10 mM in DMSO, for S. aureus 272123 and SE03; for the other strains, the concentrations tested ranged from 64 µg/mL to 4 µg/mL and were prepared from a stock solution of 10 mg/mL in DMSO. DMSO was used in subinhibitory concentrations (1% v/v). The MIC was determined by visual inspection.
A general note: In broth dilution the organism is exposed to a series of concentrations in liquid medium.

Assay [4] relates to S. aureus 272123. In words: Antibacterial activity, broth microdilution MIC. It is filed as cell-based. The following applies: Staphylococcus aureus, 272123, read-out: Minimum Inhibitory Concentration (MIC).
Description: as §4, §5

Assay [5] has as its system S. aureus ATCC 29213. Put plainly: Antibacterial activity, broth microdilution MIC. The class given is cell-based. The following applies: Staphylococcus aureus.
Description: as §4, §5

The subject of assay [6] is S. aureus ATCC 29213. In words: Inhibition of biofilm formation (crystal violet). It is filed as cell-based. The following applies: Staphylococcus aureus, ATCC29213, 48 h.
Assay [7] has as its system SE03. Put plainly: Antibacterial activity, broth microdilution MIC. The following applies: Salmonella enterica, read-out: Minimum Inhibitory Concentration (MIC). The class given is cell-based, Salmonella enterica serovar Typhimurium SL1344.
Description: as §4, §5

In assay [8] the test system is wt85. In words: Quorum sensing inhibition assay (pigment production). The class given is cell-based, Chromobacterium violaceum wild-type 85. Conditions: Chromobacterium violaceum, read-out: Quorum Sensing Inhibition (mm) ± SD. The method, then:
(§6) Concerning the QS inhibition assay, the sensor strain Chromobacterium violaceum CV026 and the AHL producer strain Sphingomonas paucimobilis Ezf 10-17 (EZF) were inoculated as parallel lines, and the AHL producers Chromobacterium violaceum wild-type 85 (wt85) and Serratia marcescens AS-1 were inoculated as a single line. The interaction between the strains and compounds 2–18 was evaluated as the reduction of pigment production, in millimeters (mm) (Table 5) with promethazine (PMZ) as a positive control.
(§7) The QS inhibitory effect of the compounds was examined on the EZF and the sensor CV026 strains, on the wt85 strain, and on S. marcescens. The method used was the parallel inoculation method, where pair combinations of the used sensor strain CV026 and the N-acyl-homoserine lactone (AHL) producing strain EZF were inoculated directly onto the LB*-A agar surface in parallel, at an approximate distance of 5 mm from each other. S. marcescens AS-1 and wt85 were inoculated as a single line. Filter paper disks (7 mm in diameter) were placed on the center of the inoculated line(s) and impregnated with 8 µL of a solution of 10 mM of the compounds. […] The agar plates were incubated at room temperature (20 °C) for 24−48 h. The QS inhibition was accessed visually, through the inhibition of pigment production. The discolored, but intact, bacterial colonies were measured with a ruler.

The subject of assay [9] is S. marcescens. The assay is described as above. The class given is cell-based, Serratia marcescens AS-1. The following applies: Serratia marcescens, read-out: Quorum Sensing Inhibition (mm) ± SD. As for the experimental part: as §6, §7
Where [10] appears, read: ATCC29212, read-out: Minimum Inhibitory Concentration (MIC).
[11] abbreviates: ATCC29212, E. faecalis ATCC 29212, read-out: Minimum Inhibitory Concentration (MIC).
Setting [12] is: ATCC29213, read-out: Minimum Inhibitory Concentration (MIC).
Setting [13] is: ATCC29213, S. aureus ATCC 29213, read-out: Minimum Inhibitory Concentration (MIC).
Where [14] appears, read: S. aureus ATCC 29213, compounds 100 µM (compound 12 at 50 µM), read-out: Biofilm Inhibition (%) ± SD.

Like-named read-outs stand apart in the source and are kept apart here.

As for `CCCOc1ccc(NCCN(CC)CC)c2c(=O)c3ccccc3sc12` [Compound 2], the results for the “RFI ± SD” value in assay [1] and in [2] were 0.75 ± 0.08 and −0.02 ± 0.04, respectively. For the same molecule, the MIC in assay [3] (setting [10]) is 83 µM; in assay [3] (setting [11]), 32 µg/mL; in assay [4], above 100 µM; in [5] (setting [12]), 83 µM; in assay [5] (setting [13]), 32 µg/mL; in [7], above 100 µM. For the same molecule, the inhibition at 100 µM in assay [6] (setting [14]) stood at 0.53 ± 1.05%. Further, the zone of inhibition at 10000 µM in [8] and in assay [9] was 0 mm each time.
Consider `CCCOc1ccc(N2CCCCC2)c2c(=O)c3ccccc3sc12` [Compound 3], for which the “RFI ± SD” value in [1] is given as 1.50 ± 0.04; in assay [2], 0.67 ± 0.01. Moreover, the MIC in assay [3] (setting [11]), in assay [4], in assay [5] (setting [13]) and in assay [7] was above 100 µM throughout. Further, the inhibition at 100 µM in assay [6] (read-out: Biofilm Inhibition (%) ± SD, S. aureus ATCC 29213, compounds 100 µM (compound 12 at 50 µM)) was above 90%. Also, the zone of inhibition at 10000 µM in assay [8] and in assay [9] was 0 mm in each case.
Turning to `CCCOc1ccc(Nc2nc(C)cc(C)n2)c2c(=O)c3ccccc3sc12` [Compound 8, 1-[(4,6-Dimethylpyrimidin-2-yl)amino]-4-propoxy-9H-thioxanthen-9-one], the “RFI ± SD” value is reported as 0.24 ± 0.07 in assay [1] and 0.74 ± 0.08 in assay [2]. Besides, the MIC in [3] (setting [11]), in [4], in [5] (setting [13]) and in assay [7] was above 100 µM each time. For the same molecule, the inhibition at 100 µM in assay [6] (setting [14]) was 0%. The zone of inhibition at 10000 µM in assay [8] and in assay [9] was 0 mm in each case.
`CCCOc1ccc(N2CCNC(=O)C2)c2c(=O)c3ccccc3sc12` [Compound 9, 4-(9-Oxo-4-propoxy-9H-thioxanthen-1-yl)piperazin-2-one]: the “RFI ± SD” value in assay [1] is recorded as 0.14 ± 0.02; in [2], 1.54 ± 0.09. For the same molecule, the MIC in assay [3] (setting [11]), in [4], in assay [5] (setting [13]) and in assay [7] was above 100 µM throughout. Further, the inhibition at 100 µM in assay [6] (setting [14]) was 5.18 ± 1.02%. The zone of inhibition at 10000 µM in [8] and in assay [9] was 0 mm in each case.
Consider `CCCOc1ccc(NCCO)c2c(=O)c3ccccc3sc12` [Compound 10, 1-[(2-Hydroxyethyl)amino]-4-propoxy-9H-thioxanthen-9-one], for which the “RFI ± SD” value is given as 4.71 ± 0.78 in assay [1] and 6.00 ± 0.80 in assay [2]. Further, the MIC in assay [3] (setting [11]), in [4], in assay [5] (setting [13]) and in [7] was above 100 µM throughout. In assay [6] (setting [14]), the inhibition at 100 µM was 0%. The zone of inhibition at 10000 µM in assay [8] and in [9] was 0 mm each time.
For `CCCOc1ccc(NCCN2CCOCC2)c2c(=O)c3ccccc3sc12` [Compound 11, 1-[(2-Morpholinoethyl)amino]-4-propoxy-9H-thioxanthen-9-one], the “RFI ± SD” value in [1] was determined as 0.89 ± 0.06; in assay [2], 1.37 ± 0.054. Further, the MIC in [3] (setting [11]), in assay [4], in assay [5] (setting [13]) and in assay [7] was above 100 µM in each case. In assay [6] (setting [14]), the inhibition at 100 µM is 0%. The zone of inhibition at 10000 µM is 0 mm in [8] and 31 ± 0.8 mm in [9].
With `CCCOc1ccc(NS(=O)(=O)c2ccc(C(=O)O)cc2)c2c(=O)c3ccccc3sc12` [Compound 12, 4-[N-(9-Oxo-4-propoxy-9H-thioxanthen-1-yl)sulfamoyl]benzoic acid], the “RFI ± SD” value in assay [1] was 0.29 ± 0.19; in assay [2] it was −0.21 ± 0.07. The MIC in assay [3] (setting [10]) is 34 µM; in [3] (setting [11]), 16 µg/mL; in assay [4], above 100 µM; in assay [5] (setting [12]) it was 34 µM; in [5] (setting [13]), 16 µg/mL; in [7], 50 µM. In assay [6] (setting [14]), the inhibition at 100 µM is around 53%. In addition, the zone of inhibition at 10000 µM in assay [8] and in [9] was 0 mm each time.
Consider `CCCOc1ccc(NS(=O)(=O)c2ccc(N)cc2)c2c(=O)c3ccccc3sc12` [Compound 13, 4-Amino-N-(9-oxo-4-propoxy-9H-thioxanthen-1-yl)benzenesulfonamide], for which the “RFI ± SD” value in [1] is reported as −0.18 ± 0.05; in [2] it was 1.23 ± 0.18. Besides, the MIC in assay [3] (setting [11]), in [4], in assay [5] (setting [13]) and in assay [7] was above 100 µM throughout. The inhibition at 100 µM in assay [6] (setting [14]) is 0.42 ± 1.36%. Further, the zone of inhibition at 10000 µM in assay [8] and in [9] was 0 mm each time.
For the molecule `CCCOc1ccc(Br)c2c(=O)c3ccccc3sc12` [Compound 14, 1-Bromo-4-propoxy-9H-thioxanthen-9-one], the “RFI ± SD” value in [1] came to 1.13 ± 0.13; in [2] it was 0.87 ± 0.11. Besides, the MIC in assay [3] (setting [11]), in [4], in assay [5] (setting [13]) and in assay [7] was above 100 µM each time. In assay [6] (setting [14]), the inhibition at 100 µM turned out to be 0%. Moreover, the zone of inhibition at 10000 µM in [8] and in assay [9] was 0 mm throughout.
For the molecule `CCCOc1ccc2ncnc3c2c1Sc1ccccc1-3` [Compound 15], the “RFI ± SD” value was −0.07 ± 0.50 in [1] and 0.54 ± 0.11 in assay [2]. Moreover, the MIC in [3] (setting [11]), in assay [4], in assay [5] (setting [13]) and in assay [7] was above 100 µM in each case. For the same molecule, the inhibition at 100 µM in assay [6] (setting [14]) came to 0%. Moreover, the zone of inhibition at 10000 µM in assay [8] worked out at 0 mm; in assay [9], 32 ± 0.5 mm.

For the origin of these results see paper PMC8232621, “Antimicrobial Activity of a Library of Thioxanthones and Their Potential as Efflux Pump Inhibitors” (Pharmaceuticals, 2021).
